What was measured:
[1] = tested on: outpatients with moderate to severe unipolar depression; experiment: Prospective GENDEP cohort: association of rs7905446 genotype with antidepressant remission; type: in vivo, human; settings: TT vs TG/GG, logistic regression adjusted for sex, age and center ID, week 12, remission MADRS≤10
Method: Statistical analysis. The association between drug response and allelic SNPs identified from pooled-sequencing were performed using logistic regression (PLINK version 1.9).. The association between drug response and […] genotype was performed using logistic regression within Caucasian population. χ^2 tests were used to compare the sex distribution between responder and non-responder. Group differences were analyzed using Student's T-test. […] Replication study II in the Genome-based Therapeutic Drugs for Depression ([…]) study. […] is a multicenter part-randomized open-label pharmacogenetic study of 811 outpatients with moderate to severe unipolar depression diagnosed according to DSM-IV and established in the semi-structured SCAN interview. Patients were aged 19 to 72 years with European ancestry for at least two generations. Patients with personal and family history of schizophrenia or bipolar affective disorder and current dependence on alcohol or drugs were excluded from the study. […] Patients with contraindications for one of the drugs were allocated nonrandomly to the other antidepressant. […] The study was approved by ethics boards of all the participating centers. All participants provided written informed consent.

[2] = biological target: norepinephrine transporter (Homo sapiens, UniProt P23975); settings: cited from earlier work
norepinephrine transporter, sequence (P23975 whole entry, species assumed): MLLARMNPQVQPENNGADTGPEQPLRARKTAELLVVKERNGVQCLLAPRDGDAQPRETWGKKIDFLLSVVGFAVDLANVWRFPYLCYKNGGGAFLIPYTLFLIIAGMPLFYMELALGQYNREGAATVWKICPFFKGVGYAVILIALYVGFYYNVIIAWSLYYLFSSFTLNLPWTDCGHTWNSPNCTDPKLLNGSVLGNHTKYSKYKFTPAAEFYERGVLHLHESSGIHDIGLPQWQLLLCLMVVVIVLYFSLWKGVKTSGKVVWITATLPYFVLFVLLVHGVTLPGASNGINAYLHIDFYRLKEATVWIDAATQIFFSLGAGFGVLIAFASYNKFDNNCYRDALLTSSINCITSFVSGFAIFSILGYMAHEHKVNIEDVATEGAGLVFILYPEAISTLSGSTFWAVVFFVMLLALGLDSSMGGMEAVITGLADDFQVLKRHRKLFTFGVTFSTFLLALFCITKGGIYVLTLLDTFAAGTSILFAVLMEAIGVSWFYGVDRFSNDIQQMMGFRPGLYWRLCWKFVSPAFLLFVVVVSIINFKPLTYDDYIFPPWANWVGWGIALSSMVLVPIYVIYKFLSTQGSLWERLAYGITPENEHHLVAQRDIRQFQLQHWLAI

[3] = tested on: subjects with BD, MDD or SABP diagnosis; experiment: Retrospective cohort: association of rs7905446 genotype with self-reported SSRI response (logistic regression); type: in vivo, human; settings: TT vs TG/GG, TT associated with poor response, logistic regression adjusted for sex and age, Caucasian subjects
Method: SNP genotyping. Genotyping of rs7905446 (T/G) was performed using TaqMan SNP genotyping assay on 7900HT Fast Real-Time PCR System (Thermo Fisher Scientific, Waltham, Mass., USA) as previously described. The assay included negative controls and was run with the following condition: 95° C. for 10 min followed by 40 cycles of 92° C. for 15 s and 60° C. for 1 min. The genotyping success rate was >95%. Twenty percent of the samples were genotyped in duplicate, with 100% reproducibility.
Statistical analysis. The association between drug response and allelic SNPs identified from pooled-sequencing were performed using logistic regression (PLINK version 1.9).. The association between drug response and rs7905446 genotype was performed using logistic regression within Caucasian population. χ^2 tests were used to compare the sex distribution between responder and non-responder. Group differences were analyzed using Student's T-test. P value<0.05 were considered statistically significant.
Subjects. All subjects (n=497) were ascertained as part of several cohorts collected for genetic studies of BD. Subjects were identified through VA and UCSD clinics, as well as, advertisement and patient support groups. […]
Assessment of SSRI response. […] Subject's response to SSRI's over their lifetime was assessed based on self-reporting. […]

HTR7 [4] = biological target: HTR7 (Mus musculus, UniProt P32304); settings: in vivo; cited from earlier work
HTR7 (Mus musculus, UniProt P32304), sequence (P32304 whole entry): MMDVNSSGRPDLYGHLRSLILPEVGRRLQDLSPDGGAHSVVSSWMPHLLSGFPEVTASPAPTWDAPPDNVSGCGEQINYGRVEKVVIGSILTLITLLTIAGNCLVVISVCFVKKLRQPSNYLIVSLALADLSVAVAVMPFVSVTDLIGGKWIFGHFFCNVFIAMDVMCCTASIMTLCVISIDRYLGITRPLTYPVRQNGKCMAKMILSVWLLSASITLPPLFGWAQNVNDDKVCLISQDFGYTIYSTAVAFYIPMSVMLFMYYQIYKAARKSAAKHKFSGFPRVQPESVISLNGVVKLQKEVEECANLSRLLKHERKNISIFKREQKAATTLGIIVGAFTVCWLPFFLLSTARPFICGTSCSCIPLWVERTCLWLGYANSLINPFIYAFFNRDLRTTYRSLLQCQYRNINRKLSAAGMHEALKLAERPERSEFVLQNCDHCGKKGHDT

HTR7 [5] = biological target: HTR7 (Homo sapiens, UniProt P34969); settings: cited from earlier work
HTR7 (Homo sapiens, UniProt P34969), sequence (P34969 whole entry): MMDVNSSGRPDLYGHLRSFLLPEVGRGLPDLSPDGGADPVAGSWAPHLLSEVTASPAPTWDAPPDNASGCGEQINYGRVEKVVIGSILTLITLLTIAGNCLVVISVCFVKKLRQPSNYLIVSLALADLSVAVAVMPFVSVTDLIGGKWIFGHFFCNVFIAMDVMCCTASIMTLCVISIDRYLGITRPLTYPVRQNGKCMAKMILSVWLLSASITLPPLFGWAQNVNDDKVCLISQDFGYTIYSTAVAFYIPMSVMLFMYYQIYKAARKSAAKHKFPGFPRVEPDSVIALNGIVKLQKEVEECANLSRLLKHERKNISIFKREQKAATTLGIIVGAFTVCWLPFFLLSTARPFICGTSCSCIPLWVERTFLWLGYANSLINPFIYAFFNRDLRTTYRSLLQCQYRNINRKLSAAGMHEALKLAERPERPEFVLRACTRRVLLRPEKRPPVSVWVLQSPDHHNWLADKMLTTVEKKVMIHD

HTR7 [6] = settings: chronic treatment; cited from earlier work

In the case of `CN(C)CCC[C@@]1(c2ccc(F)cc2)OCc2cc(C#N)ccc21` [Escitalopram], the “OR, Rs7905446, remitter vs. non-remitter” value [1] is given as 1.669 and the “effect on norepinephrine transporter” value [2] is given as “no direct effect”.

In the case of `CNCCC=C1c2ccccc2CCc2ccccc21` [Nortriptyline, Nortyptiline], the “OR, Rs7905446, remitter vs. non-remitter” value [1] is reported as 0.694.

In the case of `Fc1ccc([C@@H]2CCNC[C@H]2COc2ccc3c(c2)OCO3)cc1` [Paroxetine], the “OR, Rs7905446, responder vs. non-responder” value [3] is reported as 5.250.

For `CC1CCN(CC[C@H]2CCCN2S(=O)(=O)c2cccc(O)c2)CC1` [SB-269970], the “effects of SSRI and NARI on blockade of HTR7” value (HTR7 [4]) is given as “potentiate”.

In the case of `CCN1CCCC1CNC(=O)c1cc(S(=O)(=O)CC)c(N)cc1OC` (stereo not drawn) [amisulpride, Amisulpride], the “affinity to HTR7” value (HTR7 [5]) is listed as “high affinity”.

For `CN(C)CCC=C1c2ccccc2CCc2ccccc21` [amitriptyline, Amitriptyline], the “affinity to HTR7” value (HTR7 [5]) is listed as “high affinity”.

In the case of `Clc1ccc2c(c1)C(N1CCNCC1)=Nc1ccccc1O2` [amoxapine, Amoxapine], the “affinity to HTR7” value (HTR7 [5]) is listed as “high affinity”.

In the case of `CNCCC(Oc1ccc(C(F)(F)F)cc1)c1ccccc1` (stereo not drawn) [fluoxetine, Fluoxetine], the HTR7 expression (HTR7 [6]) is listed as “downregulates”.

In the case of `O=C1[C@@H]2[C@H]3CC[C@H](C3)[C@@H]2C(=O)N1C[C@@H]1CCCC[C@H]1CN1CCN(c2nsc3ccccc23)CC1` [lurasidone, Lurasidone], the “affinity to HTR7” value (HTR7 [5]) is given as “high affinity”.

For `O=C1[C@H]2CCCC[C@H]2C(=O)N1CCCCN1CCN(c2nsc3ccccc23)CC1` [perospirone, Perospirone], the “affinity to HTR7” value (HTR7 [5]) is listed as “high affinity”.

For `Cc1nc2n(c(=O)c1CCN1CCC(c3noc4cc(F)ccc34)CC1)CCCC2` [risperidone, Risperidone], the “affinity to HTR7” value (HTR7 [5]) is listed as “high affinity”.
